Measured values taken from patent US20200268019A1, “USE OF ZINC AND COPPER GLUCONATE IN THE TREATMENT OF METHICILLIN-RESISTANT STAPHYLOCOCCUS AUREUS” (Distributors Processing, Inc., priority 2015, published 2020).

Columns and labels:
Salmonella = assay: Study 1: test for antigens against Salmonella in the blood of pigs; type: in vivo; settings: for Relative risk: Salmonella, relative to control; for Pct. positives / Positives: Salmonella-positive blood samples; for Positives: of 126 (control) / 108 (study) samples
Description: A subset of the pigs in both study groups were tested for Salmonella prior to shipping out of the test and to the meat processing facility by testing for antigens against Salmonella in the blood. An inclusion rate of 60% was desired for both groups but was not reached for the study group.

[1] = Test of efficacy and safety: zinc source in dry feed of domesticated pigs, daily weight gain; settings: for Average daily weight gain: 83 days
Source text: In a confirmation experiment the safety of using powdered zinc gluconate as a conventional dietary supplement in the dietary mineral supply of domesticated pigs was examined in a controlled study.
3 groups of pigs, each comprising 11 individuals were identically fed save for the source of zinc as according to Table 1. Group 1, which was the control group, was fed […] 75% zinc oxide per ton dry feed according to normal feeding recommendations. Group 2 was fed zinc gluconate as a powder. Group 3 was fed zinc gluconate and further including 100 g Micro Aid® per ton feed. The amount of zinc fed to the animals of the three study groups was identical and corresponding to 23 g zinc per ton dry feed. Micro Aid® is dietary supplement known to enhance growth and reduce ammonia excretions in domesticated pigs. It is a registered trade mark of DPI Global, 17656 Avenue 168, Porterville, Calif. 93257. Micro Aid® has a recognized effect on the growth increase of pigs on the order of 4% per 100 g added Micro Aid® per ton feed.
The daily gain of weight for each individual was registered during the trial period and the trial was terminated after 83 days. For comparison the expected weight gain of adding Micro Aid® to a feed mixture comprising one of the two zinc sources has been calculated.

[2] = administered as pills; cited from earlier work
[3] = Study 1: randomized trial of 0.05% zinc gluconate in pellet feed, productivity and health of pigs; settings: for combined disease and mortality withdrawal rate / pigs treated for diarrhea during the study period: 204 pigs per group, 12 weeks
Description: In a randomized trial the effect of the addition of 0.05% zinc gluconate to a standard pellet feed was tested for efficacy against Salmonella, health condition of the digestive system including stomach and intestines, and productivity in pigs, and compared to an otherwise identical diet without zinc gluconate. The control group received zinc in the form of zinc oxide to the same amount as the study group.
408 pigs from a single farm were randomly partitioned into two groups of 204 pigs each and fed with either a pelleted control feed or an otherwise identical pelleted feed comprising 0.05% zinc gluconate. In order maintain comparability of control group to study group and to diminish the influence of lung disease on the mortality of the control group, both groups were twice vaccinated with Porcilis against severe lung disease.
All pigs were followed for 12 weeks starting with their inclusion into the trial and ending with their transport to a meat processing plant. For all pigs in the study data on the feed uptake, growth, eventual diseases suffered during the study period were collected as well as including the complete slaughter records of the meat processing plant into the study. Pigs were included into the trial upon reaching an entry weight of on the average 33 kg. The pigs were weighed at inclusion into the trial, after 6 weeks, and after 12 weeks. […] The pigs in the study were allowed to eat and drink freely and the access to water and dietary was unrestricted.

[4] = Study 3: birth weight of piglets and milk production of sows; type: in vivo
Description: (§1) A controlled comparison study between two groups of pigs at two farms in the province of Nordjylland, Denmark, was performed, each farm having about 600 sows in production and each farm feeding the sows in the production zinc according to veterinarian recommendations of 75 ppm zinc per FU. At farm 1, the sows received zinc in the form of zinc oxide whereas at farm 2, the sows received zinc in the form of zinc gluconate.

[5] = Study 2: comparison of two farms, open wounds and footpad lesions in sows; type: in vivo
Description: as §1

[6] = pigs, 11 per group, 23 g zinc per ton dry feed
[7] = pigs having weights between 33-65 kg
[8] = pigs weighing between 65-105 kg

Molecule	Relative risk (Salmonella)	Pct. positives (Salmonella) [%]	Positives (Salmonella)	Average daily weight gain [1, 6] [g/daily]	added zinc taken up by the digestive system [2] [%]	combined disease and mortality withdrawal rate [3] [%]	pigs treated for diarrhea during the study period [3]	feeding units (FU) to achieve 1 kg of growth ([3]; average, whole trial 33-105 kg)	feeding units (FU) to achieve 1 kg of growth [3, 7]	feeding units (FU) to achieve 1 kg of growth [3, 8] [FU/kg]	Average daily weight gain ([1]; Group 3: zinc gluconate further including 100 g Micro Aid per ton feed) [g/daily]	signs of malnourishment or increased infection levels ([1]; regular inspection by a veterinarian)	milk production of the sows ([4]; farm 2 compared to farm 1 (zinc oxide))	weight of piglets at birth ([4]; sows of farm 2)	sows suffering from lesions on their footpads ([5]; sows of farm 2, 75 ppm zinc per FU)	number of open wounds ([5]; sows, 75 ppm zinc per FU, within a month of the dietary change)
[O]=[Zn] [zinc oxide, reference compound]	1	30.2	38	822	20	1.7	about 15%	2,85 FU/kg	2,53 FU/kg	3.13	–	–	–	–	–	–
zinc gluconate	0.56	22.2	24	875	–	1.7	about 15%	2.78 FU/kg	2,51 FU/kg	3.00	910	no signs of these conditions were observed	increased compared to the sows of farm 1	above average weight at birth	disappeared almost completely	rapid decrease in the number of open wounds
